Test results from patent US4115587A, “Fatty acid amides of norfenfluramine and compositions and methods thereof” (A. H. Robins Company, Inc., priority 1976, dated 1978).
Where two headings read alike, the source gives them in different places.

What was measured:
[1] = Dietary-induced hyperlipemia test, basal semi-purified diet: liver weight, body weight, food consumption (Table 2); type: in vivo, male Sprague-Dawley rats; details: .2% in food; for Gross Feed Efficiency: gross weight gain in grams/total food consumed in grams; for Body wt, Final / Liver wt per 100 g body wt. / Liver wt, Total: ± S.D.
Method: (§1) General feeding experiments were conducted on rats to determine the effect of the amides of this invention on serum and liver lipids of animals fed a basal diet and a basal diet supplemented with cholesterol. In addition, the effect of these drugs on serum lipoproteins was studied as well as their effect on body weight, gross feed efficiency, liver weight, appetite and energy utilization with respect to their metabolic size. Male, Sprague-Dawley rats weighing 150-175 g. were housed in cages with raised wire floors in a room kept at a temperature of 24°-26° C. with a 12-hour day and 12-hour night cycle, fed ad libitum a semipurified diet consisting by weight % composition: vitamin-free casein, 20; glucose, 63; hydrogenated coconut oil, 10; GBI Vitamin Fortification Mixture, Cat. #40060 obtained from General Biochemical Company of Chargrin Falls, Ohio, 1; modified salt mix of Williams and Briggs, Cat. #170911 obtained from General Biochemical Company, 4; and cellulose, 2; and watered. The modified salt mix provided the following amounts in grams of elements per Kg. of diet:
(§2) Diets were supplemented with 0.5% cholic acid, 1% cholesterol, and drug at the expense of glucose. The experimental period was 18-21 days with body weight and food measured at specified intervals. Animals were fasted overnight and terminally bled by cardiac puncture. Blood was anti-coagulated with ethylenediamine tetracetic acid and plasma was separated by centrifugation, and stored at -20° C. Livers were excised, weighed, and stored at -20° C. All samples remained at this temperature until they were analyzed for total lipids, total cholesterol, triglycerides and phospholipids. Gross feed efficiency together with the effect of metabolic size on food intake and the effect of drug on energy utilization were determined.
(§3) Results of testing the mixed amides of Example 5 and reference compounds in rats on a basal diet according to the foregoing procedure for dietary induced hyperlipemia are in Tables 2 and 3.

[2] = tested on: Serum and Liver Lipids; test: Dietary-induced hyperlipemia test, basal diet with cholesterol: serum and liver lipids (Table 5); type: in vivo, male Sprague-Dawley rats; details: .2% in food, ± S.D.; for Serum Cholesterol: p<.05 for Ex. 5; for Liver Cholesterol / Liver Lipids, Total / Serum Lipids, Total: p<.05 for all; for Serum Triglycerides: p<.05 for clofibrate
Method: as §1, §2
(§4) Results of testing the mixed amides of Example 5 an reference compounds in rats on a basal diet with added cholesterol according to the foregoing procedure for dietary induced hyperlipemia are in Tables 4 and 5.

[3] = type: in vivo, male Sprague-Dawley rats; details: cholesterol diet, .2% in food; for Gross Feed Efficiency: gross weight gain/total food consumed in grams; for Body wt, Final / Liver wt per 100 g body wt. / Liver wt, Total: ± S.D.
Method: as §1, §2, §4

[4] = tested on: Serum Triglycerides and Cholesterol; test: Triton-induced hyperlipidemia test (Table 1); type: in vivo, male Sprague-Dawley rats; details: 140 mg/kg p.o.; for % Change Cholesterol / % Change Triglycerides: vs control; for Serum Cholesterol / Serum Triglycerides: ± SD
Method: Fasted, male Sprague-Dawley rats weighing 250-350 g were fed ad libitum a commercial lab chow with free access to water. The animals were fasted overnight and administered Triton-WR-1339 (produced by Ruger Chemical Company, Inc., Irvington, New Jersey) as described by Schurr et al.; Lipids 7 68(1972) except the procedure was modified to use the saphenous vein and divided doses of 70 mg/kg. The rats were anesthetized with sodium pentobarbital and terminally bled by heart puncture. Serum was stored at -20° C. until it was analyzed for total cholesterol and triglycerides. Comparison was also made with clofibrate.

[5] = tested on: Serum and Liver Lipids; test: Dietary-induced hyperlipemia test, basal semi-purified diet: serum and liver lipids (Table 3); type: in vivo, male Sprague-Dawley rats; details: .2% in food, ± S.D.
Method: as §1, §2, §3

[6] = tested on: β-Sterol Synthesis, Ileum; test: β-Sterol synthesis, acetate-1-14C incorporation, ileum (Table 8); type: in vivo, male Sprague-Dawley rats; details: for Acetate-1-14C incorporated, Digitonide / Acetate-1-14C incorporated, Non-saponifiable: Ileum, 140 mg/kg p.o., ± S.D.
Method: (§5) The effect of the mixed amides of Example 5 and reference compounds on β Sterol synthesis was determined by a modified procedure of Hill and Dvornik Arch. Biochem. Biophys. 114 (1966), 88. Male Sprague-Dawley rates weighing 127-175 g. were freely provided a basal semi-purified diet and water. The rats were housed in cages with raised wire floors in a room kept at a temperature of 24°-26° C. with a 12-hour day-12-hour night cycle. The cycle was reversed so the night cycle corresponded to the working day to take advantage of the circadian rhythm that favors cholesterol synthesis. The test period was five days and 20 μCi sodium acetate-1-^14 C (Sp. act. 56 mCi/m mole) administered intraperitoneally. Animals were sacrificed under carbon dioxide and the distal 10 cm of the ileum as well as the median and left liver lobes excised and homogenized. Subsequently, the β Sterols were isolated as the digitonide and the radioactivity determined in a Packard Tricarb Liquid Scintillation Spectrometer Model 3385 using 0.5% 2,5 diphenyloxazole and 8% naphthalene in a solvent mixture of 40% toluene, 40% dioxane and 20% absolute ethanol. Data for the effect of the mixed amides of Example 5 on the synthesis of nonsaponifiable substances and β Sterols as determined by the Digitonide method are shown in Table 8. […] A prior art compound, α-methylbenzyllinoleamide at 140 mg/kg, p.o. had no effect on cholesterol synthesis in either tissue.

[7] = tested on: Serum Lipoproteins; test: Serum lipoproteins of rats fed semi-purified diet supplemented with cholesterol (Table 7); type: in vivo; details: .2% in food
Method: as §1, §2
^a VLDL, very low density lipoproteins; LDL, low density lipoproteins
and HDL, high density lipoproteins as determined on a Beckman-Gilford

[8] = tested on: β-Sterol Synthesis, Liver; test: β-Sterol synthesis, acetate-1-14C incorporation, liver (Table 8); type: in vivo, male Sprague-Dawley rats; details: for Acetate-1-14C incorporated, Digitonide / Acetate-1-14C incorporated, Non-saponifiable: Liver, 140 mg/kg p.o., ± S.D.
Method: as §5

[9] = Motor activity, modification of the method of Cook et al.; type: in vivo, female albino mice, ICR strain; details: 6.5 mg/kg, i.p.
Text: Motor activity of norfenfluramine and the amides of norfenfluramine of this invention were compared by determination of the activity in female, albino mice of the ICR strain by a modification of the method of Cook et al. in J. Pharmac. Exp. Ther. 113:11a (1955).

[10] = Neurotoxicity, tremors and lethality; type: in vivo, mice; details: i.p.
[11] = rats; seemed to be caused by reduced feed intake; cited from earlier work

CCOC(=O)C(C)(C)Oc1ccc(Cl)cc1 [Clofibrate, ethyl p-chlorophenoxyisobutyrate]
Food Consumed [1]: 306 g | Gross Feed Efficiency [1]: .180 | Body wt, Final [1]: 210 ± 21 g | Liver wt per 100 g body wt. [1]: 4.4 ± .4 g | Liver wt, Total [1]: 9.2 ± .4 g | Liver Triglycerides [2]: 7.83 ± 2.22 mg/g | Serum Cholesterol [2]: 235.00 ± 68.27 mg/100 ml | Liver Cholesterol [2]: 14.17 ± 9.10 mg/g | Liver Lipids, Total [2]: 93.83 ± 12.06 mg/g | Serum Lipids, Total [2]: 430.33 ± 119.37 mg/100 ml | Serum Triglycerides [2]: 126.50 ± 47.21 mg/100 ml | Food Consumed [3]: 340 g | Gross Feed Efficiency [3]: .215 | Body wt, Final [3]: 208 ± 16 g | Liver wt per 100 g body wt. [3]: 4.9 ± 1.2 g | Liver wt, Total [3]: 10.4 ± 2.6 g | % Change Cholesterol ([4]; Test Group I): -24.0% | % Change Triglycerides ([4]; Test Group I): -79% | Serum Cholesterol ([4]; Test Group I): 173.0 ± 54.0 mg/100 ml | Serum Triglycerides ([4]; Test Group I): 124.5 ± 7.8 mg/100 ml | % Change Cholesterol ([4]; Test Group II): -24% | Serum Cholesterol ([4]; Test Group II): 94.1 ± 13.6 mg/100 ml | % Change Triglycerides ([4]; Test Group III): -20% | Serum Cholesterol ([4]; Test Group III): 109.3 ± 24.4 mg/100 ml | Serum Triglycerides ([4]; Test Group III): 132.7 ± 64.5 mg/100 ml | % Change Cholesterol ([4]; Test Group IV): -24% | % Change Triglycerides ([4]; Test Group IV): -34% | Serum Cholesterol ([4]; Test Group IV): 213.0 ± 14.1 mg/100 ml | Serum Triglycerides ([4]; Test Group IV): 411.7 ± 118.0 mg/100 ml | Liver Cholesterol [5]: 2.63 ± .09 mg/g | Liver Lipids, Total [5]: 51.21 ± 7.89 mg/g | Liver Triglycerides [5]: 1.78 ± .43 mg/g | Serum Cholesterol [5]: 89.83 ± 8.77 mg/100 ml | Serum Lipids, Total [5]: 143.70 ± 22.42 mg/100 ml | Serum Triglycerides [5]: 31.83 ± 7.08 mg/100 ml | Acetate-1-14C incorporated, Digitonide [6]: 6.098 ± .909 n moles/g tissue | Acetate-1-14C incorporated, Non-saponifiable [6]: 6.774 ± 1.447 n moles/g tissue | Albumin, Percentage Composition [7]: 22.63% | HDL, Percentage Composition [7]: 9.03% | LDL, Percentage Composition [7]: 42.56% | VLDL, Percentage Composition [7]: 25.76% | Acetate-1-14C incorporated, Digitonide [8]: 1.588 ± 1.216 n moles/g tissue | Acetate-1-14C incorporated, Non-saponifiable [8]: 2.943 ± 1.707 n moles/g tissue

CC(N)Cc1cccc(C(F)(F)F)c1 (stereo not shown) [norfenfluramine]
effect on motor activity [9]: strong effect | tremors ([10]; 40 mg/kg): tremors were observed | lethality ([10]; 100 mg/kg): lethality

CCCCC/C=C\C/C=C\CCCCCCCC(=O)NC(C)c1ccccc1 (stereo not drawn) [α-methylbenzyl linoleamide]
gain in body weight [11]: did suppress gain in body weight | Food Consumed [1]: 331 g | Gross Feed Efficiency [1]: .210 | Body wt, Final [1]: 226 ± 30 g | Liver wt per 100 g body wt. [1]: 2.9 ± .3 g | Liver wt, Total [1]: 6.7 ± .8 g | Liver Triglycerides [2]: 4.35 ± 2.88 mg/g | Serum Cholesterol [2]: 197.75 ± 23.24 mg/100 ml | Liver Cholesterol [2]: 8.33 ± 1.37 mg/g | Liver Lipids, Total [2]: 84.00 ± 14.26 mg/g | Serum Lipids, Total [2]: 453.25 ± 90.58 mg/100 ml | Serum Triglycerides [2]: 262.50 ± 51.88 mg/100 ml | Food Consumed [3]: 311 g | Gross Feed Efficiency [3]: .177 | Body wt, Final [3]: 192 ± 25 g | Liver wt per 100 g body wt. [3]: 3.7 ± .2 g | Liver wt, Total [3]: 7.1 ± 1.3 g | Liver Cholesterol [5]: 3.34 ± .24 mg/g | Liver Lipids, Total [5]: 40.05 ± 11.37 mg/g | Liver Triglycerides [5]: 4.85 ± 2.71 mg/g | Serum Cholesterol [5]: 77.50 ± 3.91 mg/100 ml | Serum Lipids, Total [5]: 199.80 ± 60.9 mg/100 ml | Serum Triglycerides [5]: 72.33 ± 29.92 mg/100 ml | Acetate-1-14C incorporated, Digitonide [6]: 5.947 ± .654 n moles/g tissue | Acetate-1-14C incorporated, Non-saponifiable [6]: 7.648 ± 1.664 n moles/g tissue | effect on cholesterol synthesis ([6]; ileum, 140 mg/kg, p.o.): no effect | Albumin, Percentage Composition [7]: 15.65% | HDL, Percentage Composition [7]: 29.62% | LDL, Percentage Composition [7]: 18.51% | VLDL, Percentage Composition [7]: 36.19% | Acetate-1-14C incorporated, Digitonide [8]: 3.882 ± 2.887 n moles/g tissue | Acetate-1-14C incorporated, Non-saponifiable [8]: 4.533 ± 3.131 n moles/g tissue | effect on cholesterol synthesis ([8]; liver, 140 mg/kg, p.o.): no effect
